Data published in ChEMBL document CHEMBL1201862, “PubChem BioAssay data set” (2004).
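Cells were grown in 96-well plates and exposed to each compound for 48 hours at five concentrations; endpoints were interpolated linearly between bracketing concentrations, or set to the highest concentration if not reached. GI50: concentration for 50% inhibition of growth.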 Active and inactive are the calls of the source. No stated cut-off is given here; in the data, active = GI50 up to about 1.1 µM and inactive = higher.

Columns and labels:
Experiment in all cases: DTP human tumour cell line panel, 48 h
SK-MEL-5 = test system: SK-MEL-5
OVCAR-4 = test system: OVCAR-4
SK-OV-3 = test system: SK-OV-3
HOP-62 = test system: HOP-62
MOLT-4 = test system: MOLT-4
786-0 = test system: 786-0
COLO 205 = test system: COLO 205
LOX IMVI = test system: LOX IMVI
NCI-H226 = test system: NCI-H226
RPMI-8226 = test system: RPMI-8226
SNB-19 = test system: SNB-19
SK-MEL-28 = test system: SK-MEL-28
SNB-75 = test system: SNB-75
TK-10 = test system: TK-10
UO-31 = test system: UO-31
PC-3 = test system: PC-3
UACC-257 = test system: UACC-257
OVCAR-5 = test system: OVCAR-5
BT-549 = test system: BT-549
OVCAR-8 = test system: OVCAR-8
KM12 = test system: KM12
SN12C = test system: SN12C
MDA-MB-435 = test system: MDA-MB-435
IGROV-1 = test system: IGROV-1
Malme-3M = test system: Malme-3M
HCT-116 = test system: HCT-116
SR = test system: SR
HCT-15 = test system: HCT-15
SF-268 = test system: SF-268
NCI/ADR-RES = test system: NCI/ADR-RES
CCRF-CEM = test system: CCRF-CEM
SW-620 = test system: SW-620
A549 = test system: A549
U-251 = test system: U-251
ACHN = test system: ACHN
HL-60 = test system: HL-60
K562 = test system: K562
EKVX = test system: EKVX
CAKI-1 = test system: CAKI-1
SK-MEL-2 = test system: SK-MEL-2
NCI-H23 = test system: NCI-H23
DU-145 = test system: DU-145
M14 = test system: M14
RXF 393 = test system: RXF 393
Hs-578T = test system: Hs-578T
NCI-H522 = test system: NCI-H522
SF-539 = test system: SF-539
HT-29 = test system: HT-29
MCF7 = test system: MCF7
T47D = test system: T47D
HCC 2998 = test system: HCC 2998
MDA-N = test system: MDA-N
SF-295 = test system: SF-295
HOP-92 = test system: HOP-92
OVCAR-3 = test system: OVCAR-3
A498 = test system: A498
MDA-MB-231 = test system: MDA-MB-231
NCI-H460 = test system: NCI-H460
UACC-62 = test system: UACC-62

COC(=O)c1c(O)ccc2c1c1c(n2Cc2cc(OC)cc(OC)c2)C(=O)c2ccccc2C1=O
GI50 (SK-MEL-5): 8.83 µM (inactive) | GI50 (OVCAR-4): 9.93 µM (inactive) | GI50 (SK-OV-3): 6.52 µM (inactive) | GI50 (HOP-62): 9.29 µM (inactive) | GI50 (MOLT-4): 4.42 µM (inactive) | GI50 (786-0): 7.74 µM (inactive) | GI50 (COLO 205): 1.86 µM (inactive) | GI50 (LOX IMVI): 8.67 µM (inactive) | GI50 (NCI-H226): 14.7 µM (inactive) | GI50 (RPMI-8226): 2.99 µM (inactive) | GI50 (SNB-19): 24.4 µM (inactive) | GI50 (SK-MEL-28): 13.7 µM (inactive) | GI50 (SNB-75): 14.1 µM (inactive) | GI50 (TK-10): 13 µM (inactive) | GI50 (UO-31): 4.56 µM (inactive) | GI50 (PC-3): 4.39 µM (inactive) | GI50 (UACC-257): 23.9 µM (inactive) | GI50 (OVCAR-5): 21 µM (inactive) | GI50 (BT-549): 6.71 µM (inactive) | GI50 (OVCAR-8): 3.72 µM (inactive) | GI50 (KM12): 3.23 µM (inactive) | GI50 (SN12C): 6.03 µM (inactive) | GI50 (MDA-MB-435): 2.67 µM (inactive) | GI50 (IGROV-1): 5.06 µM (inactive) | GI50 (Malme-3M): 6.34 µM (inactive) | GI50 (HCT-116): 4.74 µM (inactive) | GI50 (SR): 2.44 µM (inactive) | GI50 (HCT-15): 3.93 µM | GI50 (SF-268): 8.32 µM (inactive) | GI50 (NCI/ADR-RES): 4.06 µM (inactive) | GI50 (CCRF-CEM): 3.7 µM (inactive) | GI50 (SW-620): 9.51 µM (inactive) | GI50 (A549): 5.07 µM (inactive) | GI50 (U-251): 8.26 µM (inactive) | GI50 (ACHN): 5.04 µM (inactive) | GI50 (HL-60): 7.5 µM (inactive) | GI50 (K562): 5.28 µM (inactive) | GI50 (EKVX): 11.6 µM (inactive) | GI50 (CAKI-1): 18.7 µM (inactive) | GI50 (SK-MEL-2): 10.9 µM (inactive) | GI50 (NCI-H23): 8.28 µM (inactive) | GI50 (DU-145): 21 µM (inactive) | GI50 (M14): 8.13 µM (inactive) | GI50 (RXF 393): 8.32 µM (inactive) | GI50 (Hs-578T): 7.55 µM (inactive) | GI50 (NCI-H522): 3.03 µM (inactive) | GI50 (SF-539): 11.5 µM (inactive) | GI50 (HT-29): 2.44 µM (inactive) | GI50 (MCF7): 4.63 µM (inactive) | GI50 (T47D): 10.9 µM (inactive) | GI50 (HCC 2998): 2.72 µM (inactive) | GI50 (MDA-N): 3.85 µM (inactive) | GI50 (SF-295): 11.4 µM (inactive) | GI50 (HOP-92): 4.92 µM (inactive) | GI50 (OVCAR-3): 7.87 µM (inactive) | GI50 (A498): 54.2 µM (inactive) | GI50 (MDA-MB-231): 7.13 µM (inactive) | GI50 (NCI-H460): 3.75 µM (inactive)

COc1cc2cc(C(=O)N3CC(CCl)c4c3cc(NC(=O)C(C)(C)c3ccccc3[N+](=O)[O-])c3ccccc43)[nH]c2c(OC)c1OC (stereo unspecified)
GI50 (SK-MEL-5): 1.77 µM (inactive) | GI50 (OVCAR-4): 3.08 µM (inactive) | GI50 (SK-OV-3): 2.75 µM (inactive) | GI50 (HOP-62): 0.187 µM (active) | GI50 (MOLT-4): 1.71 µM (inactive) | GI50 (786-0): 1.36 µM (inactive) | GI50 (COLO 205): 5.43 µM (inactive) | GI50 (LOX IMVI): 0.993 µM (active) | GI50 (NCI-H226): 5.14 µM (inactive) | GI50 (RPMI-8226): 173 µM (inactive) | GI50 (SNB-19): 4.36 µM (inactive) | GI50 (SK-MEL-28): 7.16 µM (inactive) | GI50 (SNB-75): 3.76 µM (inactive) | GI50 (TK-10): 8.87 µM (inactive) | GI50 (UO-31): 0.968 µM (active) | GI50 (PC-3): 1.16 µM (inactive) | GI50 (UACC-257): 6.65 µM (inactive) | GI50 (OVCAR-5): 2.77 µM (inactive) | GI50 (BT-549): 8.87 µM (inactive) | GI50 (OVCAR-8): 0.951 µM (active) | GI50 (KM12): 1.86 µM (inactive) | GI50 (SN12C): 4.23 µM (inactive) | GI50 (UACC-62): 3.32 µM (inactive) | GI50 (MDA-MB-435): 1.75 µM (inactive) | GI50 (IGROV-1): 1.35 µM (inactive) | GI50 (Malme-3M): 7.31 µM (inactive) | GI50 (HCT-116): 0.393 µM (active) | GI50 (SR): 0.192 µM (active) | GI50 (HCT-15): 1.98 µM | GI50 (SF-268): 1.88 µM (inactive) | GI50 (NCI/ADR-RES): 1.12 µM (active) | GI50 (CCRF-CEM): 0.13 µM (active) | GI50 (SW-620): 1.09 µM (active) | GI50 (A549): 0.675 µM (active) | GI50 (U-251): 0.54 µM (active) | GI50 (ACHN): 0.385 µM (active) | GI50 (HL-60): 1.36 µM (inactive) | GI50 (K562): 0.991 µM (active) | GI50 (EKVX): 11.7 µM (inactive) | GI50 (CAKI-1): 0.0687 µM (active) | GI50 (SK-MEL-2): 6.93 µM (inactive) | GI50 (NCI-H23): 0.524 µM (active) | GI50 (DU-145): 0.147 µM (active) | GI50 (M14): 1.75 µM (inactive) | GI50 (RXF 393): 1.42 µM (inactive) | GI50 (Hs-578T): 9.33 µM (inactive) | GI50 (NCI-H522): 1.99 µM (inactive) | GI50 (SF-539): 4.78 µM (inactive) | GI50 (HT-29): 1.6 µM (inactive) | GI50 (MCF7): 0.142 µM (active) | GI50 (T47D): 4.73 µM (inactive) | GI50 (HCC 2998): 6.15 µM (inactive) | GI50 (MDA-N): 5.12 µM (inactive) | GI50 (SF-295): 1.67 µM (inactive) | GI50 (HOP-92): 2.38 µM (inactive) | GI50 (OVCAR-3): 82 µM (inactive) | GI50 (A498): 0.78 µM (active) | GI50 (MDA-MB-231): 3.03 µM (inactive) | GI50 (NCI-H460): 0.158 µM (active)

Cc1cnc2nc(-c3ccc(F)cc3)cc(O)c2c1
GI50 (SK-MEL-5): 26.6 µM (inactive) | GI50 (OVCAR-4): 48.6 µM (inactive) | GI50 (SK-OV-3): 21.6 µM (inactive) | GI50 (HOP-62): 37.5 µM (inactive) | GI50 (MOLT-4): 34.1 µM (inactive) | GI50 (786-0): 32.5 µM (inactive) | GI50 (COLO 205): 7.64 µM (inactive) | GI50 (LOX IMVI): 40.4 µM (inactive) | GI50 (NCI-H226): 27.1 µM (inactive) | GI50 (RPMI-8226): 21.1 µM (inactive) | GI50 (SNB-19): 35.4 µM (inactive) | GI50 (SK-MEL-28): > 87.1 µM (inactive) | GI50 (SNB-75): 20.1 µM (inactive) | GI50 (TK-10): 48 µM (inactive) | GI50 (UO-31): 48.2 µM (inactive) | GI50 (PC-3): 28.6 µM (inactive) | GI50 (UACC-257): > 75.2 µM (inactive) | GI50 (OVCAR-5): 51.4 µM (inactive) | GI50 (BT-549): > 100 µM (inactive) | GI50 (OVCAR-8): 66.4 µM (inactive) | GI50 (KM12): 5.66 µM (inactive) | GI50 (SN12C): 67.6 µM (inactive) | GI50 (UACC-62): 21.4 µM (inactive) | GI50 (MDA-MB-435): 2.81 µM (inactive) | GI50 (IGROV-1): 29.2 µM (inactive) | GI50 (Malme-3M): 33.9 µM (inactive) | GI50 (HCT-116): 18.7 µM (inactive) | GI50 (SR): 5.14 µM (inactive) | GI50 (HCT-15): 7.66 µM | GI50 (SF-268): 67.9 µM (inactive) | GI50 (NCI/ADR-RES): 27.2 µM (inactive) | GI50 (CCRF-CEM): 25.6 µM (inactive) | GI50 (SW-620): 19 µM (inactive) | GI50 (A549): 42.4 µM (inactive) | GI50 (U-251): 23.1 µM (inactive) | GI50 (ACHN): 57.5 µM (inactive) | GI50 (HL-60): 3.26 µM (inactive) | GI50 (K562): 4.52 µM (inactive) | GI50 (EKVX): 30.9 µM (inactive) | GI50 (CAKI-1): 50.9 µM (inactive) | GI50 (SK-MEL-2): 25.4 µM (inactive) | GI50 (NCI-H23): 41.3 µM (inactive) | GI50 (DU-145): 43 µM (inactive) | GI50 (M14): 34.6 µM (inactive) | GI50 (RXF 393): 31.3 µM (inactive) | GI50 (Hs-578T): 24.1 µM (inactive) | GI50 (NCI-H522): 13 µM (inactive) | GI50 (SF-539): 26.6 µM (inactive) | GI50 (HT-29): 26.4 µM (inactive) | GI50 (MCF7): 47.5 µM (inactive) | GI50 (T47D): 39.2 µM (inactive) | GI50 (HCC 2998): 43.5 µM (inactive) | GI50 (MDA-N): 2.72 µM (inactive) | GI50 (SF-295): 25.9 µM (inactive) | GI50 (HOP-92): 33.2 µM (inactive) | GI50 (OVCAR-3): 27.5 µM (inactive) | GI50 (A498): 25.4 µM (inactive) | GI50 (MDA-MB-231): > 73.1 µM (inactive) | GI50 (NCI-H460): 19.1 µM (inactive)
